Reference: patent US9555039B2, “Piperidine derivatives and compositions for the inhibition of nicotinamide phosphoribosyltransferase (NAMPT)” (Forma TM, LLC., priority 2011, dated 2017)
pIC50: −log10 of the molar value. Like-named read-outs stand apart in the source and are kept apart here.

Assays:
[1] = target: T1, Recombinant His-tagged NAMPT (Homo sapiens, UniProt P43490); experiment: Biochemical inhibition assay: NAMPT enzymatic reaction, NMN quantified by mass spectrometry; settings: 33 nM NAMPT, 1 μM NAM, 100 μM PRPP, 30 minutes at room temperature, read-out: Biochem IC50
T1 construct: His; host or cells: E. coli
Procedure: Biochemical Inhibition Assay
NAMPT Protein Purification
Recombinant His-tagged NAMPT was produced in E. coli cells, purified over a Ni column, and further purified over a size-exclusion column by XTAL Biostructures.
The NAMPT Enzymatic Reaction
The NAMPT enzymatic reactions were carried out in Buffer A (50 mM Hepes pH 7.5, 50 mM NaCl, 5 mM MgCl2, and 1 mM THP) in 96-well V-bottom plates. The compound titrations were performed in a separate dilution plate by serially diluting the compounds in DMSO to make a 100× stock. […] The compound and enzyme mix was incubated for 15 minutes at room temperature, then 10 μL of 10× substrate and co-factors in Buffer A were added to the test well to make a final concentration of 1 μM NAM, 100 μM 5-Phospho-D-ribose 1-diphosphate (PRPP), and 2.5 mM Adenosine 5′-triphosphate (ATP). The reaction was allowed to proceed for 30 minutes at room temperature, then was quenched with the addition of 11 μL of a solution of formic acid and L-Cystathionine to make a final concentration of 1% formic acid and 10 μM L-Cystathionine. Background and signal strength was determined by addition (or non-addition) of a serial dilution of NMN to a pre-quenched enzyme and cofactor mix.
A mass spectrometry-based assay was used to measure the Nampt reaction product (NMN) and the internal control (L-Cystathionine). NMN and L-Cystathionine were detected using the services of Biocius Lifesciences with the RapidFire system. In short, the NMN and L-Cystathionine are bound to a graphitic carbon cartridge in 0.1% formic acid, eluted in 30% acetonitrile buffer, and injected into a Sciex 4000 mass spectrometer. The components of the sample were ionized with electrospray ionization and the positive ions were detected. […] The fragments are quantified and the analyzed by the following method.
First the NMN signal is normalized to the L-Cystathionine signal by dividing the NMN signal by the L-Cystathionine signal for each well. The signal from the background wells are averaged and subtracted from the test plates.
Wherein x denotes the average signal of the compound treated wells and y denotes the average signal of the DMSO treated wells.
IC50s are Determined Using Excel and this Formula.
Wherein X denotes the compound concentration 1, Y denotes the compound concentration 2, XX denotes the % inhibition at compound concentration 1 (X), and YY denotes the % inhibition at compound concentration 2 (Y).

[2] = tested on: A2780 cells; experiment: In-vitro cell proliferation assay (SRB, 72 hours); format: cell-based; settings: sulforhodamine B (SRB) assay
Procedure: In-Vitro Cell Proliferation Assay
After overnight incubation at 37° C. and 5% CO2, the compound titrations were performed in a separate dilution plate by serially diluting the compounds in DMSO to make a 1000× stock. The compounds were then further diluted to 10× final concentration in culture media, whereupon 20 μL of each dilution was added to the plated cells with controls (e.g. DMSO and blank) to make a final volume of 200 μL. The final DMSO concentration in each well was 0.1%. The plates were then incubated for 72 hours at 37° C. in a 5% CO2 incubator. The number of viable cells was then assessed using sulforhodamine B (SRB) assay. Cells were fixed at 4° C. for 1 hour with the addition of 50 μL 30% trichloroacetic acid (TCA) to make a final concentration of 6% TCA. The plates were washed four times with H2O and allowed to dry for at least 1 hour, whereupon 100 μL of a 4% SRB in 1% acetic acid solution was added to each well and incubated at room temperature for at least 30 minutes. The plates were then washed three times with 1% acetic acid, dried, and treated with 100 μL of 10 mM Tris-Base solution. The plates were then read in a microplate reader at an absorbance of 570 nm. Background was generated on a separate plate with media only.
Method for Determining % Inhibition
First, the signals from the background plate are averaged, then the background was subtracted from the test plates.
wherein x denotes the average signal of the compound-treated cells and y denotes the average signal of the DMSO-treated cells.
wherein X denotes the compound concentration 1, Y denotes the compound concentration 2, XX denotes the % inhibition at compound concentration 1 (X), and YY denotes the % inhibition at compound concentration 2 (Y).

T1 sequence (P43490 whole entry): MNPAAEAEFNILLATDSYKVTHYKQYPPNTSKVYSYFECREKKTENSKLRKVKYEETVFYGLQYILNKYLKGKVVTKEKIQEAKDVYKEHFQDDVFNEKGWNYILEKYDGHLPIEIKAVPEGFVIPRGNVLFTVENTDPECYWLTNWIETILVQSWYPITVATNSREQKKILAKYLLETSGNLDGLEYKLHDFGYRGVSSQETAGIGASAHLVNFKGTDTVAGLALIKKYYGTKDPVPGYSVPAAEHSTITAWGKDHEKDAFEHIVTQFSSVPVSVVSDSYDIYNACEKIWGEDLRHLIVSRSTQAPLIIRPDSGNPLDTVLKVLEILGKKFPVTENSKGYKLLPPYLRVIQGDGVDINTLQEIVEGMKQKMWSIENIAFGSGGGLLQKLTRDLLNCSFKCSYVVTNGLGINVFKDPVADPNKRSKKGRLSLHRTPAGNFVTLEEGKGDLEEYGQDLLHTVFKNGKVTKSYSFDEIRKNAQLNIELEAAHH

Row | Structure (SMILES) | pIC50 ([1]; 2.5 mM ATP) | pIC50 ([2]; Homo sapiens) | pIC50 ([1]; […] ATP) | pIC50 [2]
1 | O=C(NCCCCC1CCN(C(=O)c2ccc3cc[nH]c3c2)CC1)c1cc2cnccc2[nH]1 [N-(4-{1-[(1H-indol-6-yl)carbonyl]piperidin-4-yl}butyl)-1H-pyrrolo[3,2-c]pyridine-2-carboxamide] | 7.28 | 7.87 |  | 
2 | O=C(NCCCCC1CCN(C(=O)c2ccc3cc[nH]c3c2)CC1)c1ccc2nccn2c1 [N-(4-{1-[(1H-indol-6-yl)carbonyl]piperidin-4-yl}butyl)imidazo[1,2-a]pyridine-6-carboxamide] | 7.53 | 7.83 |  | 
3 | O=C(NCCCCC1CCN(C(=O)c2ccc3cc[nH]c3c2)CC1)c1cc2ccncc2s1 [N-(4-{1-[(1H-indol-6-yl)carbonyl]piperidin-4-yl}butyl)thieno[2,3-c]pyridine-2-carboxamide] | 7.44 | 7.15 |  | 
4 | O=C(NCCCCC1CCN(C(=O)c2cccc(Cl)c2Cl)CC1)c1cc2cnccc2[nH]1 [N-(4-{1-[(2,3-dichlorophenyl)carbonyl]piperidin-4-yl}butyl)-1H-pyrrolo[3,2-c]pyridine-2-carboxamide] | 7.51 | 8.49 |  | 
5 | O=C(NCCCCC1CCN(C(=O)c2cccc(Cl)c2Cl)CC1)c1cc2ccncc2s1 [N-(4-{1-[(2,3-dichlorophenyl)carbonyl]piperidin-4-yl}butyl)thieno[2,3-c]pyridine-2-carboxamide] | 7.70 | 8.17 |  | 
6 | O=C(NCCCCC1CCN(C(=O)c2cccc(F)c2F)CC1)c1cc2cnccc2[nH]1 [N-(4-{1-[(2,3-difluorophenyl)carbonyl]piperidin-4-yl}butyl)-1H-pyrrolo[3,2-c]pyridine-2-carboxamide] | 7.92 | 8.47 |  | 
7 | O=C(NCCCCC1CCN(C(=O)c2cccc(F)c2F)CC1)c1ccc2nccn2c1 [N-(4-{1-[(2,3-difluorophenyl)carbonyl]piperidin-4-yl}butyl)imidazo[1,2-a]pyridine-6-carboxamide] | 8.10 | 8.00 |  | 
8 | O=C(NCCCCC1CCN(C(=O)c2cccc(F)c2F)CC1)c1cc2ccncc2s1 [N-(4-{1-[(2,3-difluorophenyl)carbonyl]piperidin-4-yl}butyl)thieno[2,3-c]pyridine-2-carboxamide] | 8.17 | 8.35 |  | 
9 | COc1cccc(C(=O)N2CCC(CCCCNC(=O)c3cc4cnccc4[nH]3)CC2)c1OC [N-(4-{1-[(2,3-dimethoxyphenyl)carbonyl]piperidin-4-yl}butyl)-1H-pyrrolo[3,2-c]pyridine-2-carboxamide] | 7.68 | 8.72 |  | 
10 | COc1cccc(C(=O)N2CCC(CCCCNC(=O)c3ccc4nccn4c3)CC2)c1OC [N-(4-{1-[(2,3-dimethoxyphenyl)carbonyl]piperidin-4-yl}butyl)imidazo[1,2-a]pyridine-6-carboxamide] | 7.72 | 8.54 |  | 
11 | COc1cccc(C(=O)N2CCC(CCCCNC(=O)c3cc4ccncc4s3)CC2)c1OC [N-(4-{1-[(2,3-dimethoxyphenyl)carbonyl]piperidin-4-yl}butyl)thieno[2,3-c]pyridine-2-carboxamide] | 7.77 | 8.25 |  | 
12 | O=C(NCCCCC1CCN(C(=O)c2ccc(Cl)cc2Cl)CC1)c1cc2cnccc2[nH]1 [N-(4-{1-[(2,4-dichlorophenyl)carbonyl]piperidin-4-yl}butyl)-1H-pyrrolo[3,2-c]pyridine-2-carboxamide] | 7.15 | 7.92 |  | 
13 | O=C(NCCCCC1CCN(C(=O)c2ccc(Cl)cc2Cl)CC1)c1ccc2nccn2c1 [N-(4-{1-[(2,4-dichlorophenyl)carbonyl]piperidin-4-yl}butyl)imidazo[1,2-a]pyridine-6-carboxamide] | 7.45 | 7.84 |  | 
14 | O=C(NCCCCC1CCN(C(=O)c2ccc(Cl)cc2Cl)CC1)c1cc2ccncc2s1 [N-(4-{1-[(2,4-dichlorophenyl)carbonyl]piperidin-4-yl}butyl)thieno[2,3-c]pyridine-2-carboxamide] | 7.39 | 7.06 |  | 
15 | O=C(NCCCCC1CCN(C(=O)c2ccc(F)cc2F)CC1)c1cc2cnccc2[nH]1 [N-(4-{1-[(2,4-difluorophenyl)carbonyl]piperidin-4-yl}butyl)-1H-pyrrolo[3,2-c]pyridine-2-carboxamide] | 7.41 | 8.09 |  | 
16 | O=C(NCCCCC1CCN(C(=O)c2ccc(F)cc2F)CC1)c1ccc2nccn2c1 [N-(4-{1-[(2,4-difluorophenyl)carbonyl]piperidin-4-yl}butyl)imidazo[1,2-a]pyridine-6-carboxamide] | 8.15 | 7.59 |  | 
17 | O=C(NCCCCC1CCN(C(=O)c2ccc(F)cc2F)CC1)c1cc2ccncc2s1 [N-(4-{1-[(2,4-difluorophenyl)carbonyl]piperidin-4-yl}butyl)thieno[2,3-c]pyridine-2-carboxamide] | 7.89 | 7.87 |  | 
18 | COc1ccc(S(=O)(=O)N2CCC(CCCCNC(=O)c3cc4cnccc4[nH]3)CC2)c(OC)c1 [N-(4-{1-[(2,4-dimethoxybenzene)sulfonyl]piperidin-4-yl}butyl)-1H-pyrrolo[3,2-c]pyridine-2-carboxamide] | 7.72 | 8.77 |  | 
19 | COc1ccc(C(=O)N2CCC(CCCCNC(=O)c3cc4cnccc4[nH]3)CC2)c(OC)c1 [N-(4-{1-[(2,4-dimethoxyphenyl)carbonyl]piperidin-4-yl}butyl)-1H-pyrrolo[3,2-c]pyridine-2-carboxamide] | 7.17 | 8.48 |  | 
20 | COc1ccc(C(=O)N2CCC(CCCCNC(=O)c3ccc4nccn4c3)CC2)c(OC)c1 [N-(4-{1-[(2,4-dimethoxyphenyl)carbonyl]piperidin-4-yl}butyl)imidazo[1,2-a]pyridine-6-carboxamide] | 7.65 | 8.48 |  | 
21 | O=C(NCCCCC1CCN(C(=O)c2cc(Cl)ccc2Cl)CC1)c1cc2cnccc2[nH]1 [N-(4-{1-[(2,5-dichlorophenyl)carbonyl]piperidin-4-yl}butyl)-1H-pyrrolo[3,2-c]pyridine-2-carboxamide] | 7.29 | 8.21 |  | 
22 | O=C(NCCCCC1CCN(C(=O)c2cc(Cl)ccc2Cl)CC1)c1ccc2nccn2c1 [N-(4-{1-[(2,5-dichlorophenyl)carbonyl]piperidin-4-yl}butyl)imidazo[1,2-a]pyridine-6-carboxamide] | 7.99 | 8.26 |  | 
23 | O=C(NCCCCC1CCN(C(=O)c2cc(Cl)ccc2Cl)CC1)c1cc2ccncc2s1 [N-(4-{1-[(2,5-dichlorophenyl)carbonyl]piperidin-4-yl}butyl)thieno[2,3-c]pyridine-2-carboxamide] | 7.80 | 8.15 |  | 
24 | O=C(NCCCCC1CCN(S(=O)(=O)c2cc(F)ccc2F)CC1)c1cc2cnccc2[nH]1 [N-(4-{1-[(2,5-difluorobenzene)sulfonyl]piperidin-4-yl}butyl)-1H-pyrrolo[3,2-c]pyridine-2-carboxamide] | 7.95 | 8.24 |  | 
25 | O=C(NCCCCC1CCN(C(=O)c2cc(F)ccc2F)CC1)c1ccc2nccn2c1 [N-(4-{1-[(2,5-difluorophenyl)carbonyl]piperidin-4-yl}butyl)imidazo[1,2-a]pyridine-6-carboxamide] | 8.30 | 8.30 |  | 
26 | COc1ccc(OC)c(S(=O)(=O)N2CCC(CCCCNC(=O)c3cc4cnccc4[nH]3)CC2)c1 [N-(4-{1-[(2,5-dimethoxybenzene)sulfonyl]piperidin-4-yl}butyl)-1H-pyrrolo[3,2-c]pyridine-2-carboxamide] |  |  | 7.55 | 8.74
